pIC50: −log10 of the molar value. Read-outs that look alike come from different tables or passages of the source.

The term pIC50 denotes −log10 of the IC50, conventionally taken in molar units.

Experiment [1] concerns the target His-GST-TVMV-hRIPK1 (1-324) (Homo sapiens (Human), UniProt Q13546). Kind of experiment: RIPK1 HTRF Binding Assay. The settings on record: read-out: RIPK1 HTRF (IC50); FRET probe displacement, 1 h at rt. A general note: In TR-FRET formats the signal depends on donor and acceptor labels being close together.
The subject of experiment [2] is MLKL phosphorylation in HT29-L23 human colorectal adenocarcinoma cells. Kind of experiment: MLKL Phosphorylation High-Content Assay. In kind it is cell-based. The settings on record: 6 h, necroptosis induced with TNFα, SMAC mimetic and Z-VAD, read-out: pMLKL (IC50). Here is the method: MLKL Phosphorylation High-Content Assay
HT29-L23 human colorectal adenocarcinoma cells were maintained in RPMI 1640 medium containing 10% heat-inactivated FBS, 1% Penicillin-Streptomycin and 10 mM HEPES. Cells were seeded at 2,000 cells/well in 384 well tissue culture-treated microplates (Greiner #781090-3B) and incubated at 37° C. (5% CO2/95% O2) for 2 d. […] (5% CO2/95% O2). Necroptopsis was induced using a mixture of human TNFα (35 ng/mL) (Peprotech #300-01A), SMAC mimetic (from US 2015/0322111 A1) (700 nM) and Z-VAD ([…]) (BD pharmingen #51-6936). Following 6 h incubation at 37° C. (5% CO2/95% O2), the cells were fixed with 4% formaldehyde (ACROS 11969-0010) for 15 min at rt, then permeabilized with phosphate buffered saline (PBS) containing 0.2% Triton-X-100 for 10 min. MLKL phosphorylation was detected using anti-MLKL (phospho S358) antibody (Abeam #ab 187091) (1:1000 dilution in Blocking Buffer [PBS supplemented with 0.1% BSA]) with ON incubation at 4° C. After washing three times in PBS, goat anti-rabbit Alexa-488 (1:1000 dilution) (Life Technologies, A11008) and Hoechst 33342 (Life Technologies, H3570) (1:2000 dilution) in Blocking Buffer were added for 1 h at rt.
Following another three cycles of washes in PBS, the microplates were sealed, and cellular images were acquired in the Cellomics ArrayScan VTI high-content imager equipped with an X1 camera. Fluorescent images were taken using a 10× objective and the 386-23 BGRFRN_BGRFRN and 485-20 BGRFRN_BGRFRN filter sets, for nuclei and MLKL phosphorylation, respectively. The image sets were analyzed using the Compartmental Analysis Bioapplication software (Cellomics). The level of MLKL phosphorylation was quantified as MEAN_CircRingAvglntenRatio. The maximal inhibitory response was defined by the activity induced by Neels (CAS #: 852391-15-2, 6.25 μM). […] The data were fitted using the 4-parameter logistic equation to calculate the IC50 and Ymax values.

Chain of His-GST-TVMV-hRIPK1 (1-324) (Q13546 1-324): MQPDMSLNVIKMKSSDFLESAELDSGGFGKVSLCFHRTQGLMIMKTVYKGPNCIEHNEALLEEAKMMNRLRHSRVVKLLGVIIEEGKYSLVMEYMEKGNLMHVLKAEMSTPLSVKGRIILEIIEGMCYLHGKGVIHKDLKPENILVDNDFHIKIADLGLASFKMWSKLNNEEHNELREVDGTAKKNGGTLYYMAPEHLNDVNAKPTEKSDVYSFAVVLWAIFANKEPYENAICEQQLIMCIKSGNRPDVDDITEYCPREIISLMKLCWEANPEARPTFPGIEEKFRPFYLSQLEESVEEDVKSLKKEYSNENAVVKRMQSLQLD

On to `CNC(=O)c1n[nH]c2cc(-c3cnc(OC)c(C(=O)NC(C)c4ccccc4OC(F)(F)F)c3)ccc12` (single isomer, unassigned) [Example 15, 6-(6-methoxyd3-5-((1-(2-(trifluoromethoxy)phenyl)ethyl)carbamoyl)pyridin-3-yl)-N-methyl-1H-indazole-3-carboxamide], for which the pIC50 in experiment [1] is 8.30.

Consider `CNC(=O)c1n[nH]c2cc(-c3cnc(OC)c(C(=O)NC4CCCC(NC(=O)C(C)(C)C)C4)c3)ccc12` (single isomer, unassigned) [Example 17, 6-(6-methoxy-5-((3-pivalamidocyclohexyl)carbamoyl)pyridin-3-yl)-N-methyl-1H-indazole-3-carboxamide], for which the negative-log IC50 (pIC50) in experiment [1] is 7.68; in experiment [2] (Homo sapiens), 7.72.

For `CNC(=O)c1n[nH]c2cc(-c3cnc(C)c(C(=O)NC(C)c4cccc(OC(F)(F)F)c4)c3)ccc12` (single isomer, unassigned) [Example 155, N-methyl-6-[6-methyl-5-({1-[3-(tri-fluoromethoxy)phenyl]ethyl}car-bamoyl)pyridin-3-yl]-1H-indazole-3-carboxamide], the pIC50 in experiment [1] was 7.89; in experiment [2], 7.66.

With `CNC(=O)c1n[nH]c2cc(-c3cnc(C)c(C(=O)NC(C)c4cccc(OC(F)(F)F)c4)c3)ccc12` (single isomer, unassigned) [Example 156, N-methyl-6-[6-methyl-5-({1-[3-(tri-fluoromethoxy)phenyl]ethyl}car-bamoyl)pyridin-3-yl]-1H-indazole-3-carboxamide], the pIC50 in experiment [1] is 8.43; in experiment [2], 8.10.

With `CNC(=O)c1n[nH]c2cc(-c3cc(C(=O)NC(C)c4cccc(OC(F)(F)F)c4)c(C)nc3C)ccc12` (single isomer, unassigned) [Example 163, 6-[2,6-dimethyl-5-({1-[3-(trifluoromethoxy)phenyl]-ethyl}carbamoyl)pyridin-3-yl]-N-methyl-1H-indazole-3-carboxamide], the negative logarithm of the IC50 (pIC50) was 7.33 in experiment [1] and 6.74 in experiment [2].

As to `CNC(=O)c1n[nH]c2cc(-c3cc(C(=O)NC(C)c4cccc(OC(F)(F)F)c4)c(C)nc3C)ccc12` (single isomer, unassigned) [Example 164, 6-[2,6-dimethyl-5-({1-[3-(trifluoromethoxy)phenyl]-ethyl}carbamoyl)pyridin-3-yl]-N-methyl-1H-indazole-3-carboxamide], the pIC50 in experiment [1] was 8.27; in experiment [2], 8.43.

For the molecule `[2H]C([2H])([2H])Oc1ncc(-c2ccc3c(C(=O)NC([2H])([2H])C([2H])([2H])[2H])n[nH]c3c2)cc1C(=O)N[C@H](c1cc(OC(F)(F)F)ccc1F)C([2H])([2H])[2H]` [Example 1], the results for the negative-log IC50 (pIC50) in experiment [1] and in experiment [2] (Homo sapiens) were 7.77 and 8.21, respectively.

Turning to `[2H]C([2H])([2H])Oc1ncc(-c2ccc3c(C(=O)NC([2H])([2H])C([2H])([2H])[2H])n[nH]c3c2)cc1C(=O)N[C@H](C)c1ccccc1OC(F)(F)F` [Example 2, (R)—N-(ethyl-d5)-6-(6-(methoxy-d3)-5-((1-(2-(trifluoromethoxy)phenyl)ethyl)carbamoyl)pyridin-3-yl)-1H-indazole-3-carboxamide], the values for the negative logarithm of the IC50 (pIC50) in experiment [1] and in experiment [2] (Homo sapiens) were 8.26 and 8.46, respectively.

Turning to `[2H]C([2H])([2H])NC(=O)c1n[nH]c2cc(-c3cnc(OC([2H])([2H])[2H])c(C(=O)N[C@H](C)c4cccc(C(F)(F)F)c4)c3)ccc12` [Example 3, (R)-6-(6-(methoxy-d3)-5-((1-(3-(trifluoromethyl)phenyl)ethyl)carbamoyl)pyridin-3-yl)-N-(methyl-d3)-1H-indazole-3-carboxamide], the negative-log IC50 (pIC50) in experiment [1] was 7.34; in experiment [2] (Homo sapiens), 7.39.

On to `[2H]C([2H])([2H])NC(=O)c1n[nH]c2cc(-c3cnc(OC([2H])([2H])[2H])c(C(=O)N[C@H](C)c4ccccc4OC(F)(F)F)c3)ccc12` [Example 7, (R)-6-(6-(methoxy-d3)-5-((1-(2-(trifluoromethoxy)phenyl)ethyl)carbamoyl)pyridin-3-yl)-N-(methyl-d3)-1H-indazole-3-carboxamide], for which the pIC50 in experiment [1] was 8.07; in experiment [2] (Homo sapiens), 8.34.

As for `[2H]C([2H])([2H])NC(=O)c1n[nH]c2cc(-c3cnc(OC([2H])([2H])[2H])c(C(=O)N[C@@H]4CN(C(=O)C5CC(F)(F)C5)C[C@@H]4F)c3)ccc12` [Example 12, 6-(5-(((3R,4S)-1-(3,3-difluorocyclobutanecarbonyl)-4-fluoropyrrolidin-3-yl)carbamoyl)-6-methoxyd3-pyridin-3-yl)-N-methyl d3-1H-indazole-3-carboxamide], the pIC50 was 7.38 in experiment [1] and 6.40 in experiment [2] (Homo sapiens).

Turning to `[2H]C([2H])([2H])Oc1ncc(-c2ccc3c(C(=O)NC4CC4)n[nH]c3c2)cc1C(=O)N[C@H](C)c1ccccc1OC(F)(F)F` [Example 13, (R)—N-cyclopropyl-6-(6-methoxyd3-5-((1-(2-(trifluoromethoxy)phenyl)ethyl)carbamoyl)pyridin-3-yl)-1H-indazole-3-carboxamide], the figures for the negative-log IC50 (pIC50) in experiment [1] and in experiment [2] (Homo sapiens) were 8.26 and 8.29, respectively.

On to `[2H]C([2H])([2H])Oc1ncc(-c2ccc3c(C(=O)NC)n[nH]c3c2)cc1C(=O)NC([2H])([2H])c1ccccc1OC(F)(F)F` [Example 16, 6-(6-methoxy D3-5-((2-(trifluoromethoxy)benzyl D2)carbamoyl)pyridin-3-yl)-N-methyl-1H-indazole-3-carboxamide], for which the negative logarithm of the IC50 (pIC50) was 8.66 in experiment [1] and 8.07 in experiment [2] (Homo sapiens).

As for `CNC(=O)c1n[nH]c2cc(-c3cnc(OC)c(-c4nnn(Cc5ccccc5)n4)c3)ccc12` [Example 20, 6-[5-(2-benzyl-2H-1,2,3,4-tetrazol-5-yl)-6-methoxypyridin-3-yl]-N-methyl-1H-indazole-3-carboxamide], the pIC50 in experiment [1] is 7.18; in experiment [2] (Homo sapiens), 7.57.

Consider `[2H]C([2H])([2H])Oc1ncc(-c2ccc3c(C(=O)NC4CCC(N(C([2H])([2H])[2H])C([2H])([2H])[2H])CC4)n[nH]c3c2)cc1C(=O)NC(C)c1cccc(OC(F)(F)F)c1` (centres unmarked) [Example 23, N-(4-(dimethyld6-amino)cyclohexyl)-6-(6-methoxyd3-5-((1-(3-(trifluoromethoxy)phenyl)ethyl)carbamoyl)pyridin-3-yl)-1H-indazole-3-carboxamide], for which the pIC50 in experiment [1] was 7.62; in experiment [2] (Homo sapiens) it was 6.85.

With `CNC(=O)c1n[nH]c2cc(-c3cnc(OC)c(C(=O)N[C@H](C)c4cc(OC(F)(F)F)ccc4F)c3)ccc12` [Example 216, 6-(5-{[(1R)-1-[2-fluoro-5-(trifluoro-methoxy)phenyl](2,2,2-deutero)-ethyl]carbamoyl}-6-(deutero)meth-oxypyridin-3-yl)-N-(deutero)methyl-1H-indazole-3-carboxamide], the pIC50 in experiment [2] is 7.52.

As for `[2H]C([2H])([2H])NC(=O)c1n[nH]c2cc(-c3cnc(OC([2H])([2H])[2H])c(C(=O)N[C@H](C)c4cc(OC(F)(F)F)ccc4F)c3)ccc12` [Example 218, 6-(5-{[(1R)-1-[2-fluoro-5-(trifluoro-methoxy)phenyl]ethyl]carbamoyl}-6-(deutero)methoxypyridin-3-yl)-N-(deutero)methyl-1H-indazole-3-carboxamide], the negative logarithm of the IC50 (pIC50) in experiment [2] (Homo sapiens) was 7.49.

For `[2H]C([2H])([2H])NC(=O)c1n[nH]c2cc(-c3cnc(OC([2H])([2H])[2H])c(C(=O)N[C@H](C)c4ccccc4C(F)(F)F)c3)ccc12` [Example 219, 6-[6-(deutero)methoxy-5-{[(1R)-1-[2-(trifluoromethyl)phenyl]ethyl]-carbamoyl}pyridin-3-yl]-N-(deutero)-methyl-1H-indazole-3-carboxamide], the negative logarithm of the IC50 (pIC50) in experiment [2] (Homo sapiens) is 7.74.

As to `[2H]C([2H])([2H])NC(=O)c1n[nH]c2cc(-c3cnc(OC([2H])([2H])[2H])c(C(=O)N[C@@H](C)c4cccc(OC(F)(F)F)c4)c3)ccc12` [Example 220, 6-[6-(deutero)methoxy-5-{[(1S)-1-[3-(trifluoromethoxy)phenyl]ethyl]-carbamoyl}pyridin-3-yl]-N-(deutero)-methyl-1H-indazole-3-carboxamide], the negative-log IC50 (pIC50) in experiment [2] (Homo sapiens) is 7.00.

As for `CNC(=O)c1n[nH]c2cc(-c3cnc(OC)c(C(=O)N[C@@H](C)c4cc(OC(F)(F)F)ccc4F)c3)ccc12` [Example 222], in experiment [2], the negative-log IC50 (pIC50) is 7.85.

For the molecule “N-[(1,1,2,2,2-deutero)ethyl]-6-(5- {[(1R)-1-[2-fluoro-5-(trifluoro- methyl)phenyl]ethyl]carbamoyl}-6- (deutero)methoxypyridin-3-yl)-1H- indazole-3-carboxamide [Example 227]”, the pIC50 in experiment [2] is 7.16.

For the origin of these results see patent US12172975B2, “1H-indazole carboxamides as receptor-interacting protein kinase 1 inhibitors (RIPK1)” (BRISTOL-MYERS SQUIBB COMPANY, priority 2018, dated 2024).
